Here are results for two molecules from patent US8222419B2, “Oxepin derivative” (Nippon Zoki Pharmaceutical Co., Ltd., priority 2006, dated 2012).

The subject of data set [1] is histamine-induced vascular hyperpermeability. As to the kind of experiment: Rat histamine-induced vascular hyperpermeability reaction (in vivo antihistamine action). The conditions noted are these: SD male rat, oral administration 1 hour before intracutaneous histamine (20 μg/location), Evans Blue leakage after 30 minutes. Here is the method: Rat Histamine-Induced Vascular Hyperpermeability Reaction (in Vivo Antihistamine Action)
An SD male rat (SPF) of 180 g in weight was previously fed for one week or more by allowing the rat to take a solid feed and tap water ad libitum, under the environment setting of a temperature of 22° C., humidity of 55% and an artificial illumination of 12 hours a day (light phase 8 am to 8 pm), and the rat was fasted overnight to be used for the experiment. Histamine-dihydrochloride (hereinafter referred to as histamine) and Evans Blue were used by dissolving each in physiological saline upon use. A substance to be tested was dissolved in water for injection or suspended in 0.5% carboxymethyl cellulose sodium, and the rat was orally administered with the solution or suspension (dose volume: 5 mL/kg body weight). After 1 hour from the administration, the physiological saline and the histamine solution were each intracutaneously injected to two locations (20 μg/0.05 ml/location) each on a back part of the rat of which hair was sheared with an electric clipper while anesthetizing with an ether. A 0.5% Evans Blue-containing physiological saline was injected intravenously to the tail (1 mL/200 g body weight) of the rat immediately before the intracutaneous injection of the histamine.
After 30 minutes, the animal was decapitated, and allowed to bleed lethally, and the skin was removed to measure an amount of leaked pigment in the blue-stained portion. The measurement of the amount of leaked pigment was carried out as follows. Skins of the pigment leaking site were cut out at two locations, 1 mL of a 2 mol/L aqueous potassium hydroxide solution was added thereto in a test tube, and the test tube was allowed to stand overnight at 37° C. to dissolve. Thereafter, 6 mL of a 1:3 mixed solution of 0.67 mol/L phosphoric acid and acetone was added to the solution, and the mixture was vigorously shaken for 10 minutes. Thereafter, the mixture was filtered, and the absorbance of the filtrate at 620 nm was measured. The absorbance obtained from the two locations of the sites injected with physiological saline, obtained as blank value, was used for a compensation. The amount of leaked pigment was calculated from the calibration curve of Evans Blue at 620 nm.

Another data set concerns the target T1, H1 receptor (Mus musculus, UniProt P70174).
T1 construct: The excised brain tissue was homogenized with Polytron; from tissue; host or cells: entire brain except cerebellum and medulla oblongata, homogenate
Put plainly: Murine intracranial H1 receptor content (ex vivo), 3H-pyrilamine binding in brain homogenate after oral dosing. As to conditions: for ID50 (mg/kg)/ED50 (mg/kg): ID50 of intracranial receptor binding test (Table 7) divided by ED50 of histamine-induced vascular hyperpermeability test (Table 6); for ED50: mouse, oral administration, brain excised after 1 hour, 3H-pyrilamine 2 nmol/L binding to brain homogenate, read-out: ID50 (the source's name).

In general, melting point refers to the temperature, or range, at which the solid turns liquid.

T1 sequence (P70174 whole entry): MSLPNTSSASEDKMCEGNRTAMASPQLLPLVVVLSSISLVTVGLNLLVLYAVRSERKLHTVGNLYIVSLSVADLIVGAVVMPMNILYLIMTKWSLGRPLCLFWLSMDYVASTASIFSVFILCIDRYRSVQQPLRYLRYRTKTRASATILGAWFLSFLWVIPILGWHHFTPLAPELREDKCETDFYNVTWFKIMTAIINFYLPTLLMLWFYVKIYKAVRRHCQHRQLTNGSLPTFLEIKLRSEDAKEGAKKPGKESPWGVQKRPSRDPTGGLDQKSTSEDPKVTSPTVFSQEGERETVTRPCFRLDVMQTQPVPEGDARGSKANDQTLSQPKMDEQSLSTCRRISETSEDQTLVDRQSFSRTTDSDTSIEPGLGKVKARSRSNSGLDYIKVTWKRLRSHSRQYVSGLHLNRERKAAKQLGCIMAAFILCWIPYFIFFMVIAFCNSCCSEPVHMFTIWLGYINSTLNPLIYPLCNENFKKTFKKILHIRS

For `CN1CCC(=C2c3ccccc3COc3ccc(NC(N)=O)cc32)CC1` [Compound 17, [11-(1-Methylpiperidin-4-ylidene)-6,11-dihydrodibenz[b,e]oxepin-2-yl]urea], the melting point was 183 °C (dec.). The molecule further registered an ED50 in data set [1] of 0.62 mg/kg. Moreover, at H1 receptor, the “ID50 (mg/kg)/ED50 (mg/kg)” value was determined as 60.6 and the ED50 came to 37.6 mg/kg.

Turning to `CN1CCC(=C2c3ccccc3COc3ccc(CC(=O)O)cc32)CC1` [Compound 24, [11-(1-Methylpiperidin-4-ylidene)-6,11-dihydrodibenz[b,e]oxepin-2-yl]acetic acid], the melting point was 226 °C (dec.). In addition, the ED50 in data set [1] was determined as 0.03 mg/kg. Moreover, at H1 receptor, the “ID50 (mg/kg)/ED50 (mg/kg)” value amounted to 53.3 and the ED50 was 1.6 mg/kg.
